Calls of active or inactive are those of the source. No cut-off for these calls is given here.
How the values were obtained:
Type in all cases: cell-based
[1] = target: T1, Sodium/nucleoside cotransporter 2 (Rattus norvegicus) (UniProt Q62773); test: Transport through CNT2 in rat hepatocytes by oil filtration assay in presence of sodium ions in Kreb-henseleit buffer; settings: Hepatocyte
T1 sequence (whole entry): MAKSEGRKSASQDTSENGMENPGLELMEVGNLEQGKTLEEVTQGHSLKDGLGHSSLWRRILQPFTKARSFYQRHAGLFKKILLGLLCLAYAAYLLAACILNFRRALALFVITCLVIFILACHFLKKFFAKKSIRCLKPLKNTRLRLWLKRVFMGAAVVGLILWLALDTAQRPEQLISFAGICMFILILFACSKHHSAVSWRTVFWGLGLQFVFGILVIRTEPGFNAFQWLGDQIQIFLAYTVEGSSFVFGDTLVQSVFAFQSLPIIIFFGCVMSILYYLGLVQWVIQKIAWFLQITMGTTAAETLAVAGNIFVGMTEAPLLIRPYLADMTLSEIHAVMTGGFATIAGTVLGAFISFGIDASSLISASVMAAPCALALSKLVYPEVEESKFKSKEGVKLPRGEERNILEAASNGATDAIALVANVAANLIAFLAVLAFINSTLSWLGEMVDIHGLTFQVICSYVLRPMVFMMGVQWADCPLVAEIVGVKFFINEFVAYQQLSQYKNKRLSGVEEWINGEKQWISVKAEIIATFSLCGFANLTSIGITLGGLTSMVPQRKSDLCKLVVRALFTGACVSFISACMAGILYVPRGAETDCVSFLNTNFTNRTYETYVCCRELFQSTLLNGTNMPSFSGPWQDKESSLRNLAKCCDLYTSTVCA

[2] = target: T2, Sodium/nucleoside cotransporter 2 (Mus musculus) (UniProt O88627); test: Transport through CNT2 in mouse hepatocytes by oil filtration assay in presence of sodium ions in Kreb-henseleit buffer; settings: Hepatocyte
T2 sequence (whole entry): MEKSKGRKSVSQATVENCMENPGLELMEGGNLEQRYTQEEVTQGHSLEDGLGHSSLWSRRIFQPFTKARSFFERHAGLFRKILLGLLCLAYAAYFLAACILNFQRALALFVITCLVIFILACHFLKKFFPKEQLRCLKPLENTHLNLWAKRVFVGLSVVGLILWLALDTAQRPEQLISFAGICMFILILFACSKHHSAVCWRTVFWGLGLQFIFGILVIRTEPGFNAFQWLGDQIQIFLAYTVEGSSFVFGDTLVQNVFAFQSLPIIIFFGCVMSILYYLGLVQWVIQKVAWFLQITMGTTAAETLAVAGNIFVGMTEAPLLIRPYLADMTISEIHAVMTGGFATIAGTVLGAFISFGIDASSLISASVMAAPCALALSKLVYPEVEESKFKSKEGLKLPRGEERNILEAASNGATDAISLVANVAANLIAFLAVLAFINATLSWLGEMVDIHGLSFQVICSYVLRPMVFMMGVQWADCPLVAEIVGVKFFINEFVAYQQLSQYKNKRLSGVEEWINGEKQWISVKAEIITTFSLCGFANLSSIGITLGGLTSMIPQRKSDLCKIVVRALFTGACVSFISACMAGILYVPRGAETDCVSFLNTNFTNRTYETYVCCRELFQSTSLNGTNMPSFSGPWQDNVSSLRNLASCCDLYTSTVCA

[3] = target: T3, Equilibrative nucleoside transporter 1 (Mus musculus) (UniProt Q9JIM1); test: Transport through ENT1 in mouse hepatocytes by oil filtration assay in presence 100 uM of transporter inhibitor NBMRP; settings: Hepatocyte
T3 sequence (whole entry): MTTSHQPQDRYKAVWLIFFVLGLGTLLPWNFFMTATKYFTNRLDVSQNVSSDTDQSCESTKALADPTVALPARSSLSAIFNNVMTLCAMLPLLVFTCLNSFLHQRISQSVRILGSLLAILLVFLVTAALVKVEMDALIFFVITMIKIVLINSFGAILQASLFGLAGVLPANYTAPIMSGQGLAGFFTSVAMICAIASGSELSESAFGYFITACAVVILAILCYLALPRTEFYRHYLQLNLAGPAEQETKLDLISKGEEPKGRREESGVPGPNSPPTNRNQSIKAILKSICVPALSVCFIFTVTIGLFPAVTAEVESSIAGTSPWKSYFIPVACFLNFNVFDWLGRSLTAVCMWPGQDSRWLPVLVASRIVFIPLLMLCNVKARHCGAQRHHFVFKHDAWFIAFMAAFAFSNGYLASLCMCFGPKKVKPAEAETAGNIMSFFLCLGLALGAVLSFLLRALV

[4] = test system: Hepatocyte; test: Transport through CNT3 in rat hepatocytes by oil filtration assay in presence of sodium ions in Kreb-henseleit buffer containing 100 uM NBMPR and thymidine
[5] = target: T4, Equilibrative nucleoside transporter 2 (Rattus norvegicus) (UniProt O54699); test: Transport through ENT2 in rat hepatocytes by oil filtration assay in presence 100 uM of transporter inhibitor NBMRP; settings: Hepatocyte
T4 sequence (whole entry): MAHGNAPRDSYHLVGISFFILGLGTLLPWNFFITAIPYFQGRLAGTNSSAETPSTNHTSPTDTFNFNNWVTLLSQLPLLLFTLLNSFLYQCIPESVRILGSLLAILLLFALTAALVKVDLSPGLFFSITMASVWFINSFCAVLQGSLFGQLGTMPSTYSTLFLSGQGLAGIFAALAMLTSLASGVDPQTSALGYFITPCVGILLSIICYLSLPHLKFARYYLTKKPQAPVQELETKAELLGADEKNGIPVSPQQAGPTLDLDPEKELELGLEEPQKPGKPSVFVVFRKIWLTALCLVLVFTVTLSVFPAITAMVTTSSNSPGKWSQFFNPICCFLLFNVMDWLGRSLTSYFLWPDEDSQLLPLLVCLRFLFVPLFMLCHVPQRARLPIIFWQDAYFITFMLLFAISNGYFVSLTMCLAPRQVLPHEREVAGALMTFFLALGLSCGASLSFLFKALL

[6] = test system: Hepatocyte; test: Transport through CNT3 in rat hepatocytes by oil filtration assay in presence of sodium ions in Kreb-henseleit buffer

Nc1ncnc2c1ncn2[C@@H]1O[C@H](CO)[C@@H](O)[C@H]1O was tested, and the Activity [1] was “Active”, the Activity [2] was “inactive” and the Activity [3] was “inactive”. The Activity [4] was “inactive”, the Activity [5] was “inactive” and the Activity [6] was “Active”.

NC(=O)c1ncn([C@@H]2O[C@H](CO)[C@@H](O)[C@H]2O)n1 was tested, and the Activity [1] was “Active”, the Activity [2] was “inactive” and the Activity [3] was “inactive”. The Activity [4] was “inactive”, the Activity [5] was “inactive” and the Activity [6] was “Active”.
